According to article PMC12055641, “The Study of Antistaphylococcal Potential of Omiganan and Retro-Omiganan Under Flow Conditions” (Probiotics and Antimicrobial Proteins, 2024):
Values joined by “and” are separate entries in the source; they are usually repeats but may differ in a detail not shown here. Identical values can stand only once. No end group written: not given here.

How the values were obtained:
S. aureus ATCC 25923 = experiment: Biofilm formation in peptide-coated PDMS channels under flow; assay type: cell-based, Staphylococcus aureus; details: peptide co-immobilized on pDa-coated PDMS channel, 24 h flow
Experimental: (§1) Formation of the biofilm inside the PDMS flow chambers was performed using three peristaltic pumps working simultaneously (LP-pump, Kamush, Lipopharm, Poland) and sterile Tygon® 3350 silicone hoses (2.4 × 0.8 × 0.8 mm) with a length of 30 and 50 cm for inlet and outlet, respectively. Bacterial suspensions were prepared (0.5 × 10^7 CFU/mL) in sterile 50-mL test tubes, which were placed in a heating block at 37 °C. Before experiments, all channels were assessed for tightness and sterilized using a 70% 2-propanol solution (10 min, flow rate 1 mL/min) and rinsed with sterile PBS solution (10 min, flow 0.1 mL/min). The formation of biofilm inside the channels was divided into three stages: (1) adhesion—at this stage S. aureus suspensions were passed through the channels for 4 h at a flow rate of 0.1 mL/min; (2) rinsing—the previously used hoses were replaced with new sterile ones, and the channels were rinsed with sterile PBS solution for 10 min at a flow rate of 0.1 mL/min; (3) biofilm growth—after flushing the channels, the silicone hoses were placed in tubes with MHB medium, which was passed through the channels for 24 h at a flow rate of 0.1 mL/min. All experiments included growth and sterility controls.
(§2) Incorporation of omiganan and retro-omiganan into PDMS channels was conducted using a polydopamine (pDa) coating, as previously described with a slight modification resulting from flow-based experimental model. To do this, the pDa coating was done by rinsing the channels with a solution of dopamine hydrochloride (Sigma-Aldrich, 2 mg/mL) in 10 mM bicin buffer (pH 8.5) for 18 h, 0.3 mL/min in a closed system (Fig. 3A). Then, the channels were rinsed with a sterile solution of demineralized water. Further co-immobilization was conducted using new, sterile silicone hoses connected to flow chambers and test tubes containing aqueous solutions of the peptides (100 µg/mL) pumped through the channels in a closed system for 6 h at 0.3 mL/min (Fig. 3B). Assessment of peptide binding was performed using liquid chromatography (RP-HPLC), by comparing the content of the compounds in the solution before and after incorporation. Waters Alliance e2695 system with a Waters 2998 PDA Detector (software-Empower 3, Waters, Milford, MA, USA) was used. All analyses were carried out on a Waters X-Bridge Shield RP-18 column (3.0 × 100 mm, 3.5 μm particle size, 130 Å pore size) with UV detection at 214 nm and samples (10 μL) were eluted with a linear 10–90% acetonitrile gradient in deionized water over 15 min at 25.0 ± 0.1 °C. The mobile phase flow rate was 0.5 mL/min. Both eluents contained 0.1% (v/v) of TFA. Each peptide sample was analyzed in triplicate. Such functionalized PDMS channels were used for further studies on biofilm formation. […]

[1] = system: S. aureus ATCC 33591 (MRSA); experiment: as above; assay type: cell-based, Staphylococcus aureus; details: peptide co-immobilized on pDa-coated PDMS channel, 24 h flow
Experimental: as §1, §2

[2] = incubation with human skin S9 protease; cited from earlier work
[3] = system: mupirocin-resistant MRSA strains; design: method as in PMID 28581672; details: all mupirocin-resistant MRSA strains analyzed; cited from earlier work

KRRWPWWPWRLI-NH2 [Retro-Omiganan]
reduction of bacteria forming biofilm relative to control (S. aureus ATCC 25923): 81%
reduction of bacteria forming biofilm relative to control [1]: 96%

ILRWPWWPWRRK-NH2 [Omiganan]
reduction of bacteria forming biofilm relative to control (S. aureus ATCC 25923): 71%
reduction of bacteria forming biofilm relative to control [1]: 98%
half-life [2]: ca. 10 min
MIC [3]: 12.5 µM and 22.7 µg/mL
